Reference: PubChem BioAssay AID2060329 (Molecular Pharmacology Branch, DTP, NCI, 2025)

Tested on: MCF7 multi-cell spheroids with HUVEC/MSC, viability
Assay: Anticancer human tumor MCF7 cell line growth inhibition [IpAb];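 note: spheroids exposed to agents for seven days before readout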
Conditions: for IC50: curve of first compound; for viability, T/C: stronger effect = lower value
Summary of the method: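 Spheroids of 60% malignant cells, 25% HUVEC and 15% MSC were exposed to targeted agents combined with ipatasertib or abemaciclib. Doses started at or near clinical Cmax (10 microM when unknown) and fell in half-log steps.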

[1] = second compound 0.01 µM, first compound 0.00316 µM
[2] = second compound 0.01 µM, first compound 0.01 µM
[3] = second compound 0.01 µM, first compound 0.0316 µM
[4] = second compound 0.01 µM, first compound 0.1 µM
[5] = second compound 0.0316 µM, first compound 0.00316 µM
[6] = second compound 0.0316 µM, first compound 0.01 µM
[7] = second compound 0.0316 µM, first compound 0.0316 µM
[8] = second compound 0.0316 µM, first compound 0.1 µM
[9] = second compound 0.1 µM, first compound 0.00316 µM
[10] = second compound 0.1 µM, first compound 0.01 µM
[11] = second compound 0.1 µM, first compound 0.0316 µM
[12] = second compound 0.1 µM, first compound 0.1 µM
[13] = second compound 0.316 µM, first compound 0.00316 µM
[14] = second compound 0.316 µM, first compound 0.01 µM
[15] = second compound 0.316 µM, first compound 0.0316 µM
[16] = second compound 0.316 µM, first compound 0.1 µM
[17] = second compound 1 µM, first compound 0.00316 µM
[18] = second compound 1 µM, first compound 0.01 µM
[19] = second compound 1 µM, first compound 0.0316 µM
[20] = second compound 1 µM, first compound 0.1 µM
[21] = second compound 0.01 µM, first compound 0.316 µM
[22] = second compound 0.01 µM, first compound 1 µM
[23] = second compound 0.01 µM, first compound 3.16 µM
[24] = second compound 0.01 µM, first compound 10 µM
[25] = second compound 0.0316 µM, first compound 0.316 µM
[26] = second compound 0.0316 µM, first compound 1 µM
[27] = second compound 0.0316 µM, first compound 3.16 µM
[28] = second compound 0.0316 µM, first compound 10 µM
[29] = second compound 0.1 µM, first compound 0.316 µM
[30] = second compound 0.1 µM, first compound 1 µM
[31] = second compound 0.1 µM, first compound 3.16 µM
[32] = second compound 0.1 µM, first compound 10 µM
[33] = second compound 0.316 µM, first compound 0.316 µM
[34] = second compound 0.316 µM, first compound 1 µM
[35] = second compound 0.316 µM, first compound 3.16 µM
[36] = second compound 0.316 µM, first compound 10 µM
[37] = second compound 1 µM, first compound 0.316 µM
[38] = second compound 1 µM, first compound 1 µM
[39] = second compound 1 µM, first compound 3.16 µM
[40] = second compound 1 µM, first compound 10 µM

Structure (SMILES) | IC50 (second compound 0.01 µM) | IC50 (second compound 0.0316 µM) | IC50 (second compound 0.1 µM) | IC50 (second compound 0.316 µM) | IC50 (second compound 1 µM) | viability, T/C [3] | viability, T/C [4] | viability, T/C [7] | viability, T/C [8] | viability, T/C [11] | viability, T/C [12] | viability, T/C [15] | viability, T/C [16] | viability, T/C [19] | viability, T/C [20] | viability, T/C [21] | viability, T/C [22] | viability, T/C [25] | viability, T/C [26] | viability, T/C [29] | other results
CC(C)n1nc(-c2ccc3oc(N)nc3c2)c2c(N)ncnc21 + CCN1CCN(Cc2ccc(Nc3ncc(F)c(-c4cc(F)c5nc(C)n(C(C)C)c5c4)n3)nc2)CC1 | 10.6 nM | 7.31 nM | 7.34 nM | 14.5 nM | 25.6 nM | 21.6% | 11.9% | 21% | 13.8% | 19.3% | 16.8% | 34.4% | 28.7% | 47.8% | 41.6% |  |  |  |  |  | viability, T/C (second compound 0.01 µM, first compound 0.000316 µM): 90.9%; viability, T/C (second compound 0.01 µM, first compound 0.001 µM): 103%; viability, T/C [1]: 71.1%; viability, T/C [2]: 55.6%; viability, T/C (second compound 0.0316 µM, first compound 0.000316 µM): 89.3%; viability, T/C (second compound 0.0316 µM, first compound 0.001 µM): 90.2%; viability, T/C [5]: 73.3%; viability, T/C [6]: 40.8%; viability, T/C (second compound 0.1 µM, first compound 0.000316 µM): 95.4%; viability, T/C (second compound 0.1 µM, first compound 0.001 µM): 94%; viability, T/C [9]: 69.2%; viability, T/C [10]: 44.6%; viability, T/C (second compound 0.316 µM, first compound 0.000316 µM): 116%; viability, T/C (second compound 0.316 µM, first compound 0.001 µM): 101%; viability, T/C [13]: 78.2%; viability, T/C [14]: 58.8%; viability, T/C (second compound 1 µM, first compound 0.000316 µM): 102%; viability, T/C (second compound 1 µM, first compound 0.001 µM): 83.1%; viability, T/C [17]: 80.6%; viability, T/C [18]: 55.3%
CC1(C)CCC(CN2CCN(c3ccc(C(=O)NS(=O)(=O)c4ccc(NCC5CCOCC5)c([N+](=O)[O-])c4)c(Oc4cnc5[nH]ccc5c4)c3)CC2)=C(c2ccc(Cl)cc2)C1 + CCN1CCN(Cc2ccc(Nc3ncc(F)c(-c4cc(F)c5nc(C)n(C(C)C)c5c4)n3)nc2)CC1 | 7020 nM | 7010 nM | 6630 nM | 6290 nM | 5390 nM | 107% | 93.2% | 97.8% | 94.8% | 107% | 118% | 99.5% | 117% | 105% | 107% | 109% | 96.8% | 94.9% | 91.5% | 102% | viability, T/C [23]: 111%; viability, T/C [24]: 26.4%; viability, T/C [27]: 104%; viability, T/C [28]: 29.2%; viability, T/C [30]: 106%; viability, T/C [31]: 104%; viability, T/C [32]: 20.1%; viability, T/C [33]: 116%; viability, T/C [34]: 104%; viability, T/C [35]: 98.6%; viability, T/C [36]: 17%; viability, T/C [37]: 101%; viability, T/C [38]: 92.7%; viability, T/C [39]: 87.7%; viability, T/C [40]: 9.36%
CCCS(=O)(=O)Nc1ccc(F)c(C(=O)c2c[nH]c3ncc(-c4ccc(Cl)cc4)cc23)c1F + CCN1CCN(Cc2ccc(Nc3ncc(F)c(-c4cc(F)c5nc(C)n(C(C)C)c5c4)n3)nc2)CC1 | > 10000 nM | > 10000 nM | > 10000 nM | > 10000 nM | 8100 nM | 97.8% | 106% | 89.6% | 96.7% | 101% | 96.8% | 98.3% | 103% | 101% | 94.7% | 97.5% | 90.1% | 91.7% | 91.9% | 100% | viability, T/C [23]: 93.4%; viability, T/C [24]: 84%; viability, T/C [27]: 85.3%; viability, T/C [28]: 70.1%; viability, T/C [30]: 99.4%; viability, T/C [31]: 88.4%; viability, T/C [32]: 77.3%; viability, T/C [33]: 94%; viability, T/C [34]: 101%; viability, T/C [35]: 93.1%; viability, T/C [36]: 76.5%; viability, T/C [37]: 92.5%; viability, T/C [38]: 87.8%; viability, T/C [39]: 72.9%; viability, T/C [40]: 44.5%
COc1c(OCCCN2CCOCC2)ccc2c3n(c(=NC(=O)c4cnc(N)nc4)nc12)CCN3 + CCN1CCN(Cc2ccc(Nc3ncc(F)c(-c4cc(F)c5nc(C)n(C(C)C)c5c4)n3)nc2)CC1 | 42.3 nM | 29.8 nM | 29.7 nM | 42 nM | 57.1 nM | 61.3% | 27.7% | 46.5% | 22.8% | 48.9% | 23.4% | 56.5% | 36.5% | 59% | 41% | 9.2% | 11.6% | 7.69% | 11.1% | 8.37% | viability, T/C [1]: 101%; viability, T/C [2]: 79.7%; viability, T/C [5]: 91.2%; viability, T/C [6]: 82.2%; viability, T/C [9]: 99.2%; viability, T/C [10]: 78.8%; viability, T/C [30]: 9.47%; viability, T/C [13]: 93.1%; viability, T/C [14]: 73.5%; viability, T/C [33]: 17.9%; viability, T/C [34]: 15%; viability, T/C [17]: 94%; viability, T/C [18]: 66.7%; viability, T/C [37]: 36.6%; viability, T/C [38]: 18%
Cc1nc(NC(=O)N2CCCC2C(N)=O)sc1-c1ccnc(C(C)(C)C(F)(F)F)c1 (stereo not given) + CCN1CCN(Cc2ccc(Nc3ncc(F)c(-c4cc(F)c5nc(C)n(C(C)C)c5c4)n3)nc2)CC1 | 3360 nM | 2430 nM | 2690 nM | 3500 nM | 2730 nM | 104% | 93.5% | 112% | 108% | 106% | 96.6% | 93% | 105% | 92.3% | 80.2% | 94.8% | 72.6% | 91% | 63.4% | 76% | viability, T/C [23]: 52.2%; viability, T/C [24]: 23.8%; viability, T/C [27]: 48.7%; viability, T/C [28]: 14.2%; viability, T/C [30]: 59.4%; viability, T/C [31]: 56.5%; viability, T/C [32]: 27.3%; viability, T/C [33]: 80.7%; viability, T/C [34]: 61.4%; viability, T/C [35]: 58.9%; viability, T/C [36]: 34%; viability, T/C [37]: 65.6%; viability, T/C [38]: 69.4%; viability, T/C [39]: 48%; viability, T/C [40]: 33.1%
